{"source": "patent US9925176B2", "about": "“Sodium channel blocker delivery system with scleral lens” (Boston Foundation for Sight, priority 2009, dated 2018)", "key": {"[1]": {"test_system": "cornea", "conditions": "proparacaine 0.05%, after photorefractive keratectomy, Shahinian et al.; cited from earlier work"}, "[2]": {"test_system": "corneal neuropathic pain", "assay": "Treatment of corneal pain with drug solution in the fluid reservoir of a scleral lens (BOS-P)", "format": "in vivo, human", "procedure": "(§1) A patient with well-established primary Sjögren's syndrome and severe dry eyes was treated for intense, constant corneal pain using the anesthetic delivery system disclosed herein. Specifically, the patient was treated with bupivacaine and BOS-P devices. The concentration of non-preserved bupivacaine was rapidly titrated using frequent (every 2-5 minutes) drops in the more symptomatic left eye (open label) measuring corneal sensitivity with a Cochet-Bonnet aesthesiometer (with adequate recovery times) until reaching the concentration that avoided any depression of corneal sensitivity. The sub-anesthetic concentration in this patient was determined to be 0.001%. Both BOS-P devices were filled with 0.001% bupivacaine and inserted into the patient's eyes. The patient then left.\nThe patient was given a vial of 0.01% bupivacaine to dilute 1:10 (e.g., add one drop of 0.01% bupivacaine to nine drops of saline) to fill the reservoir of the left lens prior to inserting it the next morning.\n(§2) They wore the BOS-P containing 0.001% bupivacaine in their left eye, and the BOS-P containing saline in their right eye unmasked to the patient and doctor, for about 8 hours. […] Corneal sensation in the treated eye was normal.\nThe fluid compartments of both BOS-P lenses were filled with non-preserved bupivacaine at a concentration of 0.002%, and the BOS-P lenses with bupivacaine were worn at least 12 hours/day. […] Eye symptoms were also resolved after the bupivacaine was diluted to 0.0014%.\nA patient suffered from Stevens-Johnson syndrome for about 25 years, complicated by scarring of the lids and corneas of both eyes. The patient was fitted with scleral lens with marked mitigation of eye pain for 2 years following which the patient experienced increasingly disabling eye pain and photosensitivity that was refractory to all available treatments and required high daily doses of opioids to control. Three drops of ropivacaine 0.04% were mixed with 5 drops of saline in the reservoirs of both of the patient's scleral lenses, yielding a solution of 0.015% ropivacaine.\nThe patient returned the following day 2 hours after inserting the scleral lenses containing 0.015% ropivacaine. […]\nA patient underwent a bone marrow stem cell transplant for leukemia and subsequently developed severe dry eyes secondary to chronic graft versus host disease. They were fitted with a scleral lens that eliminated the severe burning pain in their right eye but continued to experienced knife-like and severe aching pain in their left eye and disabling photosensitivity while wearing the scleral lens. This persisted for 15 months. All eye and co-morbid pain symptoms disappeared when the lens was worn with its fluid reservoir filled with sterile, non-preserved lacosamide 0.05%."}, "[3]": {"test_system": "corneal sensitivity", "assay": "Corneal sensitivity by Cochet-Bonnet aesthesiometry", "format": "in vivo, human", "source_text": "The sub-hypoesthetic dose for a sodium channel blocker or a sodium channel modulator may vary between patients. […] The sub-hypoesthetic dose of a sodium channel blocker or a sodium channel modulator can be determined for an individual patient by selecting a higher starting concentration and gradually reducing the concentration via titration until reaching a sub-hypoesthetic dose as determined by a contact and non-contact esthesiometer. A non-limiting example of a method of determining corneal sensitivity is Cochet-Bonnet aesthesiometry.\nAs used herein, the phrases “sub-anesthetic dose” and “sub-anesthetic concentration” refer to a dose of a sodium channel blocker or a sodium channel modulator or a sodium channel modulator that is lower than the anesthetic dose. “Sub-anesthetic dose” and “sub-anesthetic concentration” may be used interchangeably. The sub-anesthetic dose of a sodium channel blocker or a sodium channel modulator may vary between patients. The sub-anesthetic dose of a sodium channel blocker or a sodium channel modulator can be determined for an individual patient by selecting a higher starting concentration and gradually reducing the concentration via titration until reaching a sub-anesthetic dose as determined by a contact and non-contact esthesiometer. A non-limiting example of a starting concentration of a sodium channel blocker or a sodium channel modulator is about 0.02%. In some embodiments, the concentration of the sodium channel blocker or a sodium channel modulator may be titrated down to a concentration that avoids any depression of corneal sensitivity. A non-limiting example of a method of determining corneal sensitivity is Cochet-Bonnet aesthesiometry.\nas §1, with “Both BOS-P devices were filled with 0.001% bupivacaine and inserted into the patient's eyes.” left out"}, "[4]": {"test_system": "corneas", "assay": "Ocular safety examination (fluorescein staining, slit lamp, confocal microscopy)", "format": "in vivo, human", "procedure": "as §2\nThe patient returned the following day 2 hours after inserting the scleral lenses containing 0.015% ropivacaine.\nA patient suffered from severe corneal neuropathic pain for many years, greatly limiting the patient's quality of life. This disease was refractory to previous treatments. Lacosamide was placed in the fluid reservoir of the device where it remained in contact with the cornea while it was worn (approximately 10 hours/day)."}, "[5]": {"test_system": "corneal neuropathic pain", "assay": "Lacosamide eye drops without scleral lens for corneal neuropathic pain", "format": "in vivo, human", "conditions": "Example 5, eye drops with 0.5% lacosamide", "procedure": "Eye drops containing 0.5% lacosamide were administered to the eyes of two patients and to the an eye of the inventor. […] Therefore, it is believed that lacosamide may be used in eye drops at a concentration of up to 5% to treat corneal neuropathic pain without depressing corneal sensation."}, "[6]": {"conditions": "Example 3, ropivacaine in scleral lenses, continued use"}}, "data": [{"smiles": "CCCOc1ccc(C(=O)OCCN(CC)CC)cc1N", "note": "[Proparacaine]", "values": [{"measurement": "anesthetic effect", "setting": "[1]", "value": "non-anesthetic"}, {"measurement": "toxicity and safety", "setting": "[1]", "value": "non-toxic, and safe for at least one week of use"}]}, {"smiles": "CCCCN1CCCCC1C(=O)Nc1c(C)cccc1C", "note": "(stereo not shown) [bupivacaine]", "values": [{"measurement": "eye comfort reported by patient", "setting": "[2]; Example 1, both BOS-P filled with 0.001% bupivacaine, next day", "value": "both eyes felt more comfortable than they had been in 3 months"}, {"measurement": "pain reported at day's end", "setting": "[2]; Example 1, second day, left lens reservoir filled with non-preserved bupivacaine", "value": "virtual absence of pain in either eye"}, {"measurement": "pain after exposure to glass cleaner or white board marker", "setting": "[2]; Example 1, second day, triggers that ordinarily cause severe pain", "value": "little or no pain"}, {"measurement": "pain reported after about 8 hours of wear", "setting": "[2]; Example 1, third day, BOS-P with 0.001% bupivacaine in left eye, saline in right eye", "value": "virtually no pain in either eye"}, {"measurement": "pain with the Visual Analog Scale", "setting": "[2]; Example 1, third day, on arrival", "value": "virtually no pain in either eye"}, {"measurement": "eye symptoms", "setting": "[2]; Example 2, bupivacaine diluted to 0.0014%", "value": "resolved"}, {"measurement": "eye symptoms (photosensitivity, burning pain, inability to read)", "setting": "[2]; Example 2, post cosmetic lid surgery, 0.002% bupivacaine in both BOS-P, at least 12 hours/day, several weeks", "value": "resolved"}, {"measurement": "corneal sensitivity during wear", "setting": "[3]; Example 1, 0.001% bupivacaine in left lens, verified periodically during the day", "value": "absence of depressed corneal sensitivity"}, {"measurement": "corneal sensation in the treated eye", "setting": "[3]; Example 1, after about 8 hours of BOS-P with 0.001% bupivacaine", "value": "normal"}, {"measurement": "corneal sensation", "setting": "[3]; Example 2, 0.002% bupivacaine in BOS-P, several weeks", "value": "remained intact"}, {"measurement": "fluorescein staining", "setting": "[4]; in vivo", "value": "no significant fluorescein staining"}]}, {"smiles": "CCCN1CCCC[C@H]1C(=O)Nc1c(C)cccc1C", "note": "[ropivacaine]", "values": [{"measurement": "eye pain and photophobia, lenses worn until midnight", "setting": "[2]; Example 3, 0.015% ropivacaine, first day", "value": "total resolution"}, {"measurement": "eye pain and photosensitivity following application", "setting": "[2]; Example 3, Stevens-Johnson syndrome, 0.015% ropivacaine in both scleral lenses", "value": "rapid mitigation"}, {"measurement": "symptoms at the time of examination", "setting": "[2]; Example 3, following day, 2 hours after inserting lenses with 0.015% ropivacaine", "value": "free of symptoms"}, {"measurement": "eye pain and photophobia at subsequent examinations", "setting": "[2]; [6]", "value": "significant mitigation"}, {"measurement": "corneal sensitivity", "setting": "[3]; Example 3, 0.015% ropivacaine, following day", "value": "normal"}, {"measurement": "corneal sensitivities at subsequent examinations", "setting": "[3]; [6]", "value": "normal"}, {"measurement": "adverse effects from the treatment", "setting": "[4]; in vivo", "value": "no adverse effects"}, {"measurement": "treatment-related complications at subsequent examinations", "setting": "[4]; in vivo", "value": "without adverse treatment-related complications"}]}, {"smiles": "COC[C@@H](NC(C)=O)C(=O)NCc1ccccc1", "note": "[lacosamide]", "values": [{"measurement": "eye and co-morbid pain symptoms", "setting": "[2]; Example 6, chronic graft versus host disease dry eye, scleral lens reservoir filled with lacosamide 0.05%", "value": "disappeared"}, {"measurement": "corneal sensation", "setting": "[3]; Example 5, eye drops with 0.5% lacosamide, two patients and the inventor", "value": "did not depress corneal sensation"}, {"measurement": "detrimental effects to the corneas", "setting": "[4]; Example 4, 0.003% lacosamide in BOS-P, slit lamp examination and confocal microscopy", "value": "without any detrimental effects"}, {"measurement": "duration of effect, one patient", "setting": "[5]", "value": "over four"}, {"measurement": "duration of effect, other patient", "setting": "[5]", "value": "over two"}, {"measurement": "onset of pain resolution", "setting": "[5]", "value": "almost immediately after administration"}, {"measurement": "corneal neuropathic pain", "setting": "[5]; both patients", "value": "complete resolution"}]}]}
